Experimental data as given in article PMC9610617, “Anti-HIV Ermiasolides from Croton megalocarpus” (Molecules, 2022).
Converted amounts (≈) assume the structure as drawn. “And” between values parts separate entries of the source, which are not always exact repeats. Equal values may be shown once. Read-outs that look alike come from different tables or passages of the source.

What was measured:
[1] = tested on: human T-lymphocytic MT-4 cells; assay: in vitro; conditions: MT-4 cells, 5 days, MTT, mean ± S.E.M, n = 3; for MNTC, maximum nontoxic concentration: concentration with cell viability above 80% (CC20)
From the text: (§1) In this study, human T-lymphocyte MT-4 cells (ARP-120) were obtained from the National Institute of Health (NIH) HIV Reagent Program, Division of AIDS, National Institute of Allergy and Infectious Diseases (NIAID), NIH; donated by Dr. Douglas Richman. Human T-lymphocytic MT-4 cells express CD4, CXCR4 and CCR5 and are used for cytotoxicity inhibition assays for antiviral drugs. The vials containing frozen MT-4 cells were retrieved from the liquid nitrogen tank and rapidly thawed. In a tissue culture laminar flow hood, the exterior of the vials was decontaminated by spraying 70% ethanol. […] The CCM was sterilized with a 0.22 µm membrane filter before use. The cultures were incubated at 37 °C in a humidified incubator with atmospheric conditions of 5% CO2. […] The cell count and viability were measured by the trypan blue dye exclusion technique.
(§2) The cytotoxicity test was conducted to evaluate the cytotoxicity of the plant extracts by measuring cell death caused by the plant extracts. The assay was conducted using an MTT colorimetric assay as described by. The MTT assay is based on the reduction of the yellow-colored tetrazolium salt MTT 3-(4,5-dimethylthiazol-2-yl)-2,5-diphenyltetrazolium bromide) by NAD(P)H-dependent cellular oxidoreductase enzymes to an insoluble dark-blue colored formazan that can be measured spectrophotometrically. Formazan production indicates the number of viable cells; therefore, an increase or decrease in cellular viability results in a change in the amount of formazan formed, which indicates the degree of cellular cytotoxicity (CC50) caused by the plant extract.
(§3) MTT (3-(4,5-dimethylthiazol-2-yl)-2,5-diphenyl tetrazolium bromide) was dissolved in PBS to obtain a final concentration of 5 mg/mL and filtered to sterilize and remove insoluble residue. The assay was carried out in 96-well, flat-bottomed microtiter plates. To each well, 200 µL of MT-4 cells (1 × 10^5 cells) in growth media was added. The plates were preincubated for 24 h at 37 °C to allow stabilization. Then, 50 μL of the test compounds (at a concentration of 4 mg/mL) were added to the first column of the well. With a multichannel pipette, 50 μL was transferred (in triplicate) from the wells labeled 1 to wells labeled 2, and such transfers were continued (serial dilution), moving from left to right, changing tips prior to mixing contents of the next column of wells. Finally, 50 μL was discarded from the wells in column 12. […] Each dilution was tested in triplicate. The negative control (NC) wells contained 50 µL of MT-4 cells in 0.5% DMSO [39].
(§4) A 96-well microtiter plate containing the test compounds, positive and negative controls was incubated at 37 °C in a humidified atmosphere of 5% CO2 for 5 days. After incubation, 20 μL of MTT reagent (5 mg/mL MTT in phosphate-buffered saline) was added to each test well and control well. The plate was further incubated at 37 °C in a CO2 incubator for 4 h. After 4 h of incubation, 100 μL of DMSO was added to dissolve the dark-blue formazan crystals from surviving cells. After the formazan crystals were dissolved completely, the resulting optical density (OD) readings were measured relative to the controls on an ELISA plate reader at 570 nm at a reference wavelength of 620 nm. […] The concentration that determined cell viability above 80% (CC20) was chosen as the maximum non-toxic concentration (MNTC).

[2] = tested on: HIV-1IIIB; assay: Anti-HIV activity: inhibition of HIV-induced cytopathic effect in infected MT-4 cells (MTT); type: cell-based, Human immunodeficiency virus type 1; conditions: for IC50: Human immunodeficiency virus 1, MT4, 120 h; for SI, selective index: ratio CC50 (MT-4) / IC50 (HIV-1IIIB)
Description: Human immunodeficiency virus type 1 (HIV-1IIIB) strain was obtained from the NIH HIV Reagent Program, Division of AIDS, NIAID, NIH. Dr. Robert Gallo donated human immunodeficiency virus-1 IIIB (ARP-398). HIV-1IIIB is highly capable of replicating in human T cell lines and appears to be well adapted for in vitro culture in T cells. The frozen HIV-1IIIB vials were thawed by immersion in room temperature water, and the vial was swirled until viruses were thawed. Then, 400 µL of the virus was transferred to 75 cm^2 tissue culture flasks (T75) containing 10 mL of 1 × 10^5 pelleted MT4 cells/mL, vortexed and incubated at 37 °C for 1 hr for virus adsorption. After 1 hr, 20 mL of RPMI-1640 was added gently and mixed with vortexing. The cells were then pelleted by centrifuging at 1500 rpm for 5 min. The pelleted cells were then washed and resuspended in 30 mL RPMI 1640 with L-glutamine and 20% fetal bovine serum in a T75 flask, incubated at 37 °C and monitored for the development of cytopathic effects (CPEs).
The virus infectivity test was performed to determine the infectious titer of the virus, which can cause cytopathic effects (CPE) in tissue culture over a reasonable period of 3 to 10 days while cells in culture remain viable. In addition, this procedure was performed to quantify the amount of virus required to produce a cytopathic effect in 50% of cell culture replicates (TCID50). CPE induced by the virus was observed under a microscope after 3–4 days. The TCID50 was then calculated as described by. For the anti-HIV activity testing, 640 µL of HIV-1IIIB virus at 1.26 × 10^8 TCID50/mL was used to infect 1 × 10^8 cell/mL. All procedures were carried out following biosafety guidelines defined in the BMBL, NIH-CDC HHS Publication No. (CDC) 21-1112 [44].
MT-4 cells suspended at 1 × 10^8 cells/mL were infected with 640 µL of HIV-1IIIB virus at 1.26 × 10^8 TCID50/mL as described in above. After infection, 200 µL HIV-infected MT-4 cells (1 × 10^5 cells/well) in growth media were added to each well. The plates were preincubated for 24 h at 37 °C to allow stabilization. Then, 50 μL of the test compounds (at a concentration of 4 mg/mL) were added to the first column of the well. With a multichannel pipette, 50 μL was transferred (in triplicate) from the wells labeled 1 to wells labeled 2. Such transfers were continued (serial dilution), moving from left to right, changing tips prior to mixing contents of the next column of wells. Finally, 50 μL was discarded from the wells in column 12. Different concentrations ([…]) of test compounds were prepared through serial dilution. Each dilution was tested in triplicate. The microtiter plates were incubated at 37 °C in a 5% CO2 incubator for 5 days. […] After 5 days of incubation, cell viability was determined by the MTT assay as described by.
A dose-response curve was plotted to calculate the concentrations that reduced viral replication by 50% (IC50). […] The efficacy of the test compounds, was determined by calculating the viral inhibition rate (EmaxAV) using Equation (1), as previously described by.

[3] = in vitro; conditions: human, MT-4 T-lymphocytic cells
From the text: as §1, §2, §3, §4

[4] = HIV-1IIIB-infected MT-4 cells, 5 days, MTT, mean ± S.E.M, n = 3
[5] = read-out: IC50, 50% antiviral effect concentration, HIV-1IIIB-infected MT-4 cells, 5 days, MTT, mean ± S.E.M, n = 3

| SMILES | MNTC, maximum nontoxic concentration [1] [µg/mL] | CC50, 50% cytotoxic concentration [1] [µg/mL] | EmaxC, maximum cytotoxic effect % [1] [%] | EmaxAV, maximum antiviral effect % (viral inhibition rate) [2, 4] | IC50 ([2]; HIV-1IIIB-infected MT-4 cells, 5 days, MTT, mean ± S.E.M, n = 3, read-out: IC50, 50% antiviral effect concentration) [µg/mL] | SI, selective index [2] | IC50 [2, 5] [µg/mL] | CC50 at 5 days [3] [µg/mL] | IC50, 50% antiviral effect concentration [2, 4] [µg/mL] |
| --- | --- | --- | --- | --- | --- | --- | --- | --- | --- |
| Nc1nc(NC2CC2)c2ncn([C@H]3C=C[C@@H](CO)C3)c2n1 [ABC, abacavir, reference compound] | 0.18 ± 0.03 | 0.26 ± 0.00 (≈ 0.908 µM) | 17.83 ± 0.57 | 58.67 ± 0.43% | 0.05 ± 0.031 (≈ 0.175 µM) | 5.0 |  |  |  |
| Cc1cn([C@H]2C[C@H](N=[N+]=[N-])[C@@H](CO)O2)c(=O)[nH]c1=O [AZT, zidovudine, reference compound] |  |  |  | 83.5 ± 0.57% |  |  | 0.002 (≈ 0.00748 µM) |  |  |
| CO[C@@]12C[C@]3(C)CCC[C@H](C)[C@@]3(O)CC1=C(C)C(=O)O2 [Compound 1, 5β-Hydroxy-8α-methoxy eudesm-7(11)-en-12,8-olide] | 41.84 ± 0.11 |  | 62.21 ± 0.67 | 93% and 93.4 ± 0.60% |  | 39,872.3 | 0.002 (≈ 0.00713 µM) | 96.77 ± 0.44 (≈ 345 µM) |  |
| CC1=C2C[C@]3(O)[C@@H](C)CCC[C@@]3(C)C[C@@]2(O)OC1=O [Compound 2, 5β,8α-Dihydroxy eudesm-7(11)-en-12,8-olide] | 4.973 ± 0.25 |  | 81.59 ± 0.41 | 69.5% and 69.51 ± 0.26% |  | 25,339.5 | 0.002 (≈ 0.00751 µM) | 38.4 ± 0.63 (≈ 144 µM) |  |
| CC1=C2C[C@]3(O)[C@@H](C)CCC[C@@]3(C)C[C@@H]2OC1=O [Compound 3, 5β-Hydroxy-8H-β-eudesm-7(11)-en-12,8-olide] | 64.93 ± 0.26 |  | 65.00 ± 0.01 | 77.5% and 77.46 ± 0.93% |  | 3384.4 | 0.04 (≈ 0.16 µM) | 148.1 ± 0.05 (≈ 592 µM) | 0.044 ± 0.01 (≈ 0.176 µM) |
| Cc1ccnc2c1NC(=O)c1cccnc1N2C1CC1 [NVP, Nevirapine, reference compound] | 0.57 ± 0.0 | 0.82 ± 0.0 (≈ 3.08 µM) | 39.13 ± 0.65 | 72.53 ± 0.47% |  | 3.5 | 0.24 ± 0.09 (≈ 0.901 µM) |  |  |
| C[C@H](Cn1cnc2c(N)ncnc21)OCP(=O)(O)O [TDF, tenofovir] | 4.92 ± 0.71 | 6.73 ± 0.24 (≈ 23.4 µM) | 13.17 ± 0.43 | 80.55 ± 0.46% |  |  | 0.04 ± 0.01 (≈ 0.139 µM) |  |  |
